# Key:
# Recombinant EGFR kinase = Recombinant EGFR kinase (Homo sapiens, UniProt P00533); test: Recombinant EGFR kinase activity; type: biochemical; details: read-out: Recombinant EGFR Kinase Activity (%inh at 150 nM)
# NF-κB = NF-κB luciferase reporter assay; type: cell-based; details: Homo sapiens, NF-κB-luciferase-transfected HEK293 cells, TNFα 50 ng/mL; for inhibition at 10 µM: mean ± SEM, n = 3, read-out: NF-κB Luciferase Activity Inh %
# Description: NF-κB Luciferase Reporter Vector was purchased from Signosis (Santa Clara, CA, USA) and transfected into HEK-293 cells using FuGENE HD (Promega, Fitchburg, MA, USA) following the manufacturer’s protocol. The transfected cells were incubated in serum-free DMEM for 16 h and then treated with DMSO or indicated compounds. After 3 h, cells were treated with or without 50 ng/mL of Recombinant Human TNFα Protein (R&D systems, Minneapolis, MN, USA) for another 3 h. The protein lysates were analyzed using Steady-Glo® Luciferase Assay System (Promega, Fitchburg, MA, USA) and TECAN Infinite 200 pro (Männedorf, Switzerland).
# [1] = Cell viability (WST-1), HEK293; type: cell-based; details: human, HEK293 cells, mean ± SEM, n = 3
# Description: (§1) Cells were incubated with the WST-1 reagent (Thermo Fisher Scientific, Waltham, MA, USA) at 37 °C for 2 h. The cell viability was determined by spectrophotometer at 450 nm.
# [2] = Cell viability (WST-1), A549; type: cell-based; details: human, A549 cells, mean ± SEM, n = 3
# Description: as §1
# dTHP−1 cells = test: Cell viability of dTHP-1 cells with or without LPS; type: cell-based, human; details: in % (unit assumed); for Cell viability of dTHP-1 cells, 5 μM, LPS / Cell viability of dTHP-1 cells, 5 μM, without LPS: 5 μM (so in the source); for Cell viability of dTHP-1 cells, 5 μM, without LPS / Cell viability of dTHP-1 cells, 7.5 μM, without LPS: no LPS
# Description: (§2) The HEK-293 (ATCC Cat# CRL-1573, RRID:CVCL_0045) and human monocytic THP−1 cells (ATCC Cat# TIB-202, RRID:CVCL_0006) were, respectively, cultured in DMEM and RPMI 1640 media supplemented with 10% fetal bovine serum, 2 mM L-glutamine, and 1× Antibiotic-Antimycotic at 37 °C in a humidified incubator with 5% CO2. THP−1 cells were differentiated by 100 nM phorbol-12-myristate-13-acetate (PMA) for 4 h and then rested for 44 h as dTHP−1 cells.
# as §1
# (§3) The dTHP−1 cells were treated with indicated compounds for 3 h and then activated with or without 100 ng/mL lipopolysaccharide (LPS; E. coli 0111:B4) for another 24 h. The levels of human IL-6 and TNFα in supernatants were measured by DuoSet® ELISA Development System (R&D systems, Minneapolis, MN, USA) according to the manufacturer’s protocol.
# TNFα production = TNFα production in LPS-activated dTHP-1 cells (ELISA); type: cell-based; details: Homo sapiens; for inhibition at 7.5 µM / inhibition at 15 µM: LPS 100 ng/mL for 24 h, dTHP-1 cells; for inhibition at 7.5 µM: read-out: TNFα Production Inh % (7.5 μM); for inhibition at 15 µM: read-out: TNFα Production Inh % (15 μM); for IC50: LPS-activated dTHP-1 cells, 24 h
# Description: as §2, §3
# IL-6 production = IL-6 production in LPS-activated dTHP-1 cells (ELISA); type: cell-based, human; details: for inhibition at 7.5 µM / inhibition at 15 µM / IC50: Homo sapiens; for inhibition at 7.5 µM: read-out: IL-6 Production Inh % (7.5 μM); for inhibition at 15 µM: read-out: IL-6 Production Inh % (15 μM); for IC50: LPS-activated dTHP-1 cells, 24 h
# Description: as §2, §3
# [3] = 7.5 μM, LPS 100 ng/mL for 24 h, dTHP-1 cells
# [4] = LPS 100 ng/mL for 24 h, dTHP-1 cells
# Sequence of Recombinant EGFR kinase (P00533 25-1210): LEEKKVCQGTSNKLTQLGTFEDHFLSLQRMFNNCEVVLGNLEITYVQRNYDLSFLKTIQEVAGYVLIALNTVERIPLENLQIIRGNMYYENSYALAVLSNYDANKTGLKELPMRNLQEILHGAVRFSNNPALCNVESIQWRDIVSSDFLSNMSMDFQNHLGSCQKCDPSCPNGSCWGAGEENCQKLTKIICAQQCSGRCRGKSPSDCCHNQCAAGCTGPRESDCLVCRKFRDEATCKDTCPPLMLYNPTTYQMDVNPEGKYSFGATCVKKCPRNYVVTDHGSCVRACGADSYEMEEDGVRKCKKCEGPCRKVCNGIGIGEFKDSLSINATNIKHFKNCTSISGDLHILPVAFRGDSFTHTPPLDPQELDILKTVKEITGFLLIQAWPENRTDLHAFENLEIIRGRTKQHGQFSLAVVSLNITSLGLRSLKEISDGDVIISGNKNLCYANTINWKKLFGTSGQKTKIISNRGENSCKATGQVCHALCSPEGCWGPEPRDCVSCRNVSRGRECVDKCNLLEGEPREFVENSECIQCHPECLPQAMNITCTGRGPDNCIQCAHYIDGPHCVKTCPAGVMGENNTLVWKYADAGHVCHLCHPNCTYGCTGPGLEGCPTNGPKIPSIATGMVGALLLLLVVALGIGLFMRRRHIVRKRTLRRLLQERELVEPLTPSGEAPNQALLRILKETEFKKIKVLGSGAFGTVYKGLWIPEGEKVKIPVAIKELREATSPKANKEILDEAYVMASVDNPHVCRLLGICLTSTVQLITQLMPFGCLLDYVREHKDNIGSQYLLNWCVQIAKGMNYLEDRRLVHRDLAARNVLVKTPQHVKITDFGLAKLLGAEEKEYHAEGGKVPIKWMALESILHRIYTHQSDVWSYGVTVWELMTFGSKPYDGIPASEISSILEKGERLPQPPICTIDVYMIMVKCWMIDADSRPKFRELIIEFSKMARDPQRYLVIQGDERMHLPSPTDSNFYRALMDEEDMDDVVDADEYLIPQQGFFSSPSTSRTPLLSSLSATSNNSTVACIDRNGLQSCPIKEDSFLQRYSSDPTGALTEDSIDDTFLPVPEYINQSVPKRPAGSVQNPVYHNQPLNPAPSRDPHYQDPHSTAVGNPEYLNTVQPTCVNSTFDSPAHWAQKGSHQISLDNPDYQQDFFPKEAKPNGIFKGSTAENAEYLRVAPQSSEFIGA
structure (smiles),measurement,setting,value
"CC(C)(C)c1ccc(CNC(=S)Nc2ccc3ncnc(Nc4cccc(Cl)c4)c3c2)cc1 [Compound 1, 1-(4-(tert-Butyl)benzyl)-3-(4-((3-chlorophenyl)amino)quinazolin-6-yl)thiourea]",inhibition at 0.15 µM,Recombinant EGFR kinase,42%
same,inhibition at 10 µM,NF-κB,41.6 ± 3.8%
same,IC50,NF-κB,> 10 µM
same,melting point,,203 to 205 °C
same,viability at 10 µM,[1],73.9 ± 4.6%
same,viability at 10 µM,[2],91.1 ± 3.4%
"COc1ccc(CNC(=S)Nc2ccc3ncnc(Nc4cccc(Cl)c4)c3c2)cc1 [Compound 2, 1-(4-((3-Chlorophenyl)amino)quinazolin-6-yl)-3-(4-methoxybenzyl)thiourea]",inhibition at 0.15 µM,Recombinant EGFR kinase,67%
same,inhibition at 10 µM,NF-κB,94.6 ± 0.1%
same,IC50,NF-κB,1.7 µM
same,"Cell viability of dTHP-1 cells, 5 μM, LPS",dTHP−1 cells; LPS 100 ng/mL for 24 h,78.8 ± 5.3
same,"Cell viability of dTHP-1 cells, 5 μM, without LPS",dTHP−1 cells,94.2 ± 1.6
same,"Cell viability of dTHP-1 cells, 7.5 μM, LPS","dTHP−1 cells; 7.5 μM, LPS 100 ng/mL for 24 h",57.5 ± 1.4
same,"Cell viability of dTHP-1 cells, 7.5 μM, without LPS",dTHP−1 cells; 7.5 μM,99.2 ± 1.5
same,inhibition at 7.5 µM,TNFα production,32.5 ± 8.5%
same,inhibition at 15 µM,TNFα production,60.4 ± 1.8%
same,IC50,TNFα production,10.2 ± 0.27 µM
same,melting point,,165 to 167 °C
same,viability at 10 µM,[1],101 ± 7.4%
same,viability at 10 µM,[2],95.4 ± 1.9%
same,inhibition at 7.5 µM,IL-6 production; [3],76.2 ± 13.3%
same,inhibition at 15 µM,IL-6 production; [4],87.5 ± 6.8%
same,IC50,IL-6 production,1.2 ± 0.12 µM
"FC(F)(F)c1ccc(CNC(=S)Nc2ccc3ncnc(Nc4cccc(Cl)c4)c3c2)cc1 [Compound 3, 1-(4-((3-Chlorophenyl)amino)quinazolin-6-yl)-3-(4-(trifluoromethyl)benzyl)thiourea]",inhibition at 0.15 µM,Recombinant EGFR kinase,70%
same,inhibition at 10 µM,NF-κB,46.5 ± 4.9%
same,IC50,NF-κB,> 10 µM
same,melting point,,165 to 167 °C
same,viability at 10 µM,[1],68.9 ± 6.4%
same,viability at 10 µM,[2],73.4 ± 4.3%
"S=C(NCc1ccc(Cl)cc1)Nc1ccc2ncnc(Nc3cccc(Cl)c3)c2c1 [Compound 4, 1-(4-Chlorobenzyl)-3-(4-((3-chlorophenyl)amino)quinazolin-6-yl)thiourea]",inhibition at 0.15 µM,Recombinant EGFR kinase,56%
same,inhibition at 10 µM,NF-κB,31.9 ± 9.6%
same,IC50,NF-κB,> 10 µM
same,melting point,,166 to 168 °C
same,viability at 10 µM,[1],95.9 ± 3.4%
same,viability at 10 µM,[2],98.1 ± 1.9%
"Fc1ccc(CNC(=S)Nc2ccc3ncnc(Nc4cccc(Cl)c4)c3c2)cc1 [Compound 5, 1-(4-((3-Chlorophenyl)amino)quinazolin-6-yl)-3-(4-fluorobenzyl)thiourea]",inhibition at 0.15 µM,Recombinant EGFR kinase,72%
same,inhibition at 10 µM,NF-κB,79.1 ± 0.8%
same,IC50,NF-κB,1.9 µM
same,melting point,,164 to 166 °C
same,viability at 10 µM,[1],67 ± 6.1%
same,viability at 10 µM,[2],65.3 ± 1.1%
"Fc1ccc(CNC(=S)Nc2ccc3ncnc(Nc4cccc(Cl)c4)c3c2)c(F)c1 [Compound 6, 1-(4-((3-chlorophenyl)amino)quinazolin-6-yl)-3-(2,4-difluorobenzyl)thiourea]",inhibition at 0.15 µM,Recombinant EGFR kinase,68%
same,inhibition at 10 µM,NF-κB,78.4 ± 2.7%
same,IC50,NF-κB,1.6 µM
same,"Cell viability of dTHP-1 cells, 5 μM, LPS",dTHP−1 cells; LPS 100 ng/mL for 24 h,5.0 ± 0.35
same,"Cell viability of dTHP-1 cells, 5 μM, without LPS",dTHP−1 cells,43.6 ± 9.0
same,"Cell viability of dTHP-1 cells, 7.5 μM, without LPS",dTHP−1 cells; 7.5 μM,62.0 ± 14.5
same,inhibition at 7.5 µM,TNFα production,61.1 ± 5.8%
same,inhibition at 15 µM,TNFα production,76.6 ± 3.8%
same,IC50,TNFα production,4.4 ± 0.85 µM
same,melting point,,178 to 180 °C
same,viability at 10 µM,[1],85.5 ± 6.4%
same,viability at 10 µM,[2],75.5 ± 2.9%
same,IL-6 Production Inh % (7.5 μM),IL-6 production; [3],almost complete blockage
same,inhibition at 7.5 µM,IL-6 production; [3],97.6 ± 0.6%
same,inhibition at 15 µM,IL-6 production; [4],98.2 ± 1.3%
same,IC50,IL-6 production,0.36 ± 0.07 µM
"COc1ccc(CNC(=S)Nc2ccc3ncnc(Nc4cccc(Cl)c4)c3c2)c(OC)c1 [Compound 7, 1-(4-((3-Chlorophenyl)amino)quinazolin-6-yl)-3-(2,4-dimethoxybenzyl)thiourea]",inhibition at 0.15 µM,Recombinant EGFR kinase,48%
same,inhibition at 10 µM,NF-κB,27.1 ± 3.4%
same,IC50,NF-κB,> 10 µM
same,"Cell viability of dTHP-1 cells, 5 μM, LPS",dTHP−1 cells; LPS 100 ng/mL for 24 h,91.9 ± 4.2
same,"Cell viability of dTHP-1 cells, 5 μM, without LPS",dTHP−1 cells,96.8 ± 4.2
same,"Cell viability of dTHP-1 cells, 7.5 μM, without LPS",dTHP−1 cells; 7.5 μM,94.4 ± 0.61
same,inhibition at 7.5 µM,TNFα production,37 ± 4.9%
same,inhibition at 15 µM,TNFα production,50.3 ± 5.5%
same,IC50,TNFα production,11.9 ± 0.7 µM
same,melting point,,204 to 206 °C
same,viability at 10 µM,[1],85.9 ± 2.5%
same,viability at 10 µM,[2],99.5 ± 1.4%
same,inhibition at 7.5 µM,IL-6 production; [3],71 ± 3.4%
same,inhibition at 15 µM,IL-6 production; [4],84 ± 0.82%
same,IC50,IL-6 production,1.2 ± 0.16 µM
"COc1cccc(CNC(=S)Nc2ccc3ncnc(Nc4cccc(Cl)c4)c3c2)c1 [Compound 8, 1-(4-((3-Chlorophenyl)amino)quinazolin-6-yl)-3-(3-methoxybenzyl)thiourea]",inhibition at 0.15 µM,Recombinant EGFR kinase,40%
same,inhibition at 10 µM,NF-κB,76.1 ± 2.6%
same,IC50,NF-κB,2.3 µM
same,melting point,,183 to 185 °C
same,viability at 10 µM,[1],100 ± 6.9%
same,viability at 10 µM,[2],101 ± 2.3%
"S=C(NCc1cccs1)Nc1ccc2ncnc(Nc3cccc(Cl)c3)c2c1 [Compound 9, 1-(4-((3-Chlorophenyl)amino)quinazolin-6-yl)-3-(thiophen-2-yl-methyl)thiourea]",inhibition at 0.15 µM,Recombinant EGFR kinase,69.8%
same,inhibition at 10 µM,NF-κB,98 ± 0.4%
same,IC50,NF-κB,2.8 µM
same,melting point,,178.8 to 180.7 °C
same,viability at 10 µM,[1],13.9 ± 0.7%
same,viability at 10 µM,[2],50.7 ± 2.4%
"S=C(NCc1ccco1)Nc1ccc2ncnc(Nc3cccc(Cl)c3)c2c1 [Compound 10, 1-(4-((3-Chlorophenyl)amino)quinazolin-6-yl)-3-(furan-2-ylmethyl)thiourea]",inhibition at 0.15 µM,Recombinant EGFR kinase,79.1%
same,inhibition at 10 µM,NF-κB,76.1 ± 2.3%
same,IC50,NF-κB,4.3 µM
same,melting point,,195.6 to 198.2 °C
same,viability at 10 µM,[1],71.7 ± 3.1%
same,viability at 10 µM,[2],74.4 ± 11.7%
"S=C(NCc1cccnc1)Nc1ccc2ncnc(Nc3cccc(Cl)c3)c2c1 [Compound 11, 1-(4-((3-Chlorophenyl)amino)quinazolin-6-yl)-3-(pyridin-3-ylmethyl)thiourea]",inhibition at 0.15 µM,Recombinant EGFR kinase,66%
same,inhibition at 10 µM,NF-κB,44.7 ± 5.8%
same,IC50,NF-κB,> 10 µM
same,melting point,,205.6 to 207.9 °C
same,viability at 10 µM,[1],62.8 ± 4%
same,viability at 10 µM,[2],98.9 ± 4.1%
"O=C(NCc1cccc(Cl)c1)Nc1ccc2ncnc(Nc3cccc(Cl)c3)c2c1 [Compound 12, 1-(3-Chlorobenzyl)-3-(4-((3-chlorophenyl)amino)quinazolin-6-yl)urea]",inhibition at 0.15 µM,Recombinant EGFR kinase,34.6%
same,inhibition at 10 µM,NF-κB,42.7 ± 9.3%
same,IC50,NF-κB,> 10 µM
same,melting point,,225.5 to 227 °C
same,viability at 10 µM,[1],114 ± 3.2%
same,viability at 10 µM,[2],101 ± 4.2%
"O=C(NCc1cccc(F)c1)Nc1ccc2ncnc(Nc3cccc(Cl)c3)c2c1 [Compound 13, 1-(4-((3-Chlorophenyl)amino)quinazolin-6-yl)-3-(3-fluorobenzyl)urea]",inhibition at 0.15 µM,Recombinant EGFR kinase,23.3%
same,inhibition at 10 µM,NF-κB,53.3 ± 10%
same,IC50,NF-κB,8.1 µM
same,melting point,,210.8 to 212 °C
same,viability at 10 µM,[1],95.5 ± 6.1%
same,viability at 10 µM,[2],104 ± 5%
"C#Cc1cccc(Nc2ncnc3ccc(NC(=O)NCc4cccc(Cl)c4)cc23)c1 [Compound 14, 1-(3-Chlorobenzyl)-3-(4-((3-ethynylphenyl)amino)quinazolin-6-yl)urea]",inhibition at 0.15 µM,Recombinant EGFR kinase,44.5%
same,inhibition at 10 µM,NF-κB,58.5 ± 0.9%
same,IC50,NF-κB,8 µM
same,melting point,,222.4 to 228.8 °C
same,viability at 10 µM,[1],110 ± 2.7%
same,viability at 10 µM,[2],98.6 ± 3%
"O=C(NC(=O)c1ccccc1)Nc1ccc2ncnc(Nc3cccc(Cl)c3)c2c1 [Compound 15, N-((4-((3-Chlorophenyl)amino)quinazolin-6-yl)carbamoyl)benzamide]",inhibition at 0.15 µM,Recombinant EGFR kinase,26%
same,inhibition at 10 µM,NF-κB,48.3 ± 9.3%
same,IC50,NF-κB,> 10 µM
same,melting point,,252.4 to 254 °C
same,viability at 10 µM,[1],114 ± 2.6%
same,viability at 10 µM,[2],100 ± 4.5%
"O=C(NC(=S)Nc1ccc2ncnc(Nc3cccc(Cl)c3)c2c1)c1ccccc1 [Compound 16, N-((4-((3-Chlorophenyl)amino)quinazolin-6-yl)carbamothioyl)benzamide]",inhibition at 0.15 µM,Recombinant EGFR kinase,48.9%
same,inhibition at 10 µM,NF-κB,58.2 ± 5.2%
same,IC50,NF-κB,7 µM
same,melting point,,186.1 to 188.5 °C
same,viability at 10 µM,[1],102 ± 4%
same,viability at 10 µM,[2],102 ± 1.6%
